Literature values as cited in US9714271B2 (ContraVir Pharmaceuticals, Inc., priority 2010, dated 2017).

Target: CyP-A (Homo sapiens, UniProt P62937)
Sequence (P62937 whole entry): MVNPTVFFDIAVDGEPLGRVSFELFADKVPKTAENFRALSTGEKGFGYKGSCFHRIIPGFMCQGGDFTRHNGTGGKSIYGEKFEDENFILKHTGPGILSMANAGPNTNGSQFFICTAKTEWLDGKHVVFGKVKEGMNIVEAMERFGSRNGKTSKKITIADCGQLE
In the case of `C/C=C/C[C@@H](C)[C@@H](O)[C@H]1C(=O)N[C@@H](CC)C(=O)N(C)[C@H](C)C(=O)N(CC)[C@@H](C(C)C)C(=O)N[C@@H](C(C)C)C(=O)N(C)[C@@H](CC(C)C)C(=O)N[C@@H](C)C(=O)N[C@H](C)C(=O)N(C)[C@@H](CC(C)C)C(=O)N(C)[C@@H](CC(C)C)C(=O)N(C)[C@@H](C(C)C)C(=O)N1C` [DEBIO 025, MeAla^3EtVal^4-Cyclosporin], the “binding affinity for CyP-A” value is given as “retains binding affinity for CyP-A”.
In the case of `C/C=C/C[C@@H](C)[C@@H](O)[C@H]1C(=O)N[C@@H](CC)C(=O)N(C)CC(=O)N(C)[C@@H]([C@@H](C)CC)C(=O)N[C@@H](C(C)C)C(=O)N(C)[C@@H](CC(C)C)C(=O)N[C@@H](C)C(=O)N[C@H](C)C(=O)N(C)[C@@H](CC(C)C)C(=O)N(C)[C@@H](CC(C)C)C(=O)N(C)[C@@H](C(C)C)C(=O)N1C` [NIM 811, Melle^4-Cyclosporine], the “binding affinity for CyP-A” value is listed as “retains binding affinity for CyP-A”.
For `C/C=C/C[C@@H](C)[C@@H](O)[C@H]1C(=O)N[C@@H](CC)C(=O)N(C)[C@H](SCCN(C)C)C(=O)N(C)[C@@H](CC(C)(C)O)C(=O)N[C@@H](C(C)C)C(=O)N(C)[C@@H](CC(C)C)C(=O)N[C@@H](C)C(=O)N[C@H](C)C(=O)N(C)[C@@H](CC(C)C)C(=O)N(C)[C@@H](CC(C)C)C(=O)N(C)[C@@H](C(C)C)C(=O)N1C` [SCY-635, DimethylaminoethylthioSar^3-hydroxyLeu^4-Cyclosporin], the “binding affinity for CyP-A” value is given as “retains binding affinity for CyP-A”.
